In ChEMBL document CHEMBL5725974, “ASK1 inhibitor compounds and uses thereof” (2018) one finds IC50 data, which are given here for 1 compound.

The target in this experiment is T1, Mitogen-activated protein kinase kinase kinase 5 (Homo sapiens, UniProt Q99683).
T1 sequence (Q99683 whole entry): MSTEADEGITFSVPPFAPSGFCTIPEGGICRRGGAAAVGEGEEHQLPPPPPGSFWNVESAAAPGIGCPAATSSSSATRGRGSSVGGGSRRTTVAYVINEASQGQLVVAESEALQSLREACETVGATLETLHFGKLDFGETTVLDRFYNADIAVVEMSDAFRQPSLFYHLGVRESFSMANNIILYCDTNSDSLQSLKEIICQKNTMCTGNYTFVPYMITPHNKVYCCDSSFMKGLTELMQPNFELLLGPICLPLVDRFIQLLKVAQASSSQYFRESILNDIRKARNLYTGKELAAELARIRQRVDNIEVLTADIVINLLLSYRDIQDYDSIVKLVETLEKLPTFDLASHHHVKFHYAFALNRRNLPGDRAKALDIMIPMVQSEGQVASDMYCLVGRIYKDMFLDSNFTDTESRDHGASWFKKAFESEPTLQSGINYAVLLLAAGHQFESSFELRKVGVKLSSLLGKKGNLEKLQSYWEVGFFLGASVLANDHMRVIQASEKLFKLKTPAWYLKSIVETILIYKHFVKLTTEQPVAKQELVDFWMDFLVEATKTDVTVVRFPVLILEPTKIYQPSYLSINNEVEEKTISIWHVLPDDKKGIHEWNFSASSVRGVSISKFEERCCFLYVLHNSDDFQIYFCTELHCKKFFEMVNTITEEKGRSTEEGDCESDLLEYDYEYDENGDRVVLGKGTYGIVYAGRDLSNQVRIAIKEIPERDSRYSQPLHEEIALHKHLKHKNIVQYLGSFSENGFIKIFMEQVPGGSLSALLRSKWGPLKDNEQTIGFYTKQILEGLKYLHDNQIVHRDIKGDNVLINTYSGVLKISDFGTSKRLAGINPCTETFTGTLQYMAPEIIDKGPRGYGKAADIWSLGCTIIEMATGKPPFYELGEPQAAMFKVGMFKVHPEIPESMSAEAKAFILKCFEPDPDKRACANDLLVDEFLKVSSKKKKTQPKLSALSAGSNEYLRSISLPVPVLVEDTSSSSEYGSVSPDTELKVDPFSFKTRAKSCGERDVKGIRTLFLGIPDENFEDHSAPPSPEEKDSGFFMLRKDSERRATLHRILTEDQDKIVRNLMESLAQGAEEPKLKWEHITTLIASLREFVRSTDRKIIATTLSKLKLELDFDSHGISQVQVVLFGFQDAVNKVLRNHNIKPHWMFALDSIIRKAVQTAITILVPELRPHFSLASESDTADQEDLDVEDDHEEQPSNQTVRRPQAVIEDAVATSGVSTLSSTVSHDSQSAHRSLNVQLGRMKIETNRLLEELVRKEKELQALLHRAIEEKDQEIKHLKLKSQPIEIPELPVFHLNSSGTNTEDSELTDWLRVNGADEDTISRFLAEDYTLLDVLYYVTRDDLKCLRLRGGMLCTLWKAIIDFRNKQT
Description: ASK1 Kinase Assay: The ASK1 enzymatic assay was run following Promega ASK1 Kinase Enzyme System (Cat #V3881). The kit provides the protocol, enzymes and all reagents necessary to run an assay. Firstly, the compounds, enzyme, substrate and ATP were diluted in provided assay buffer. The final concentration of the enzyme was 50 nM, substrate (Myelin basic protein) 1 μg/ml and ATP 10 μM. The compound and the enzyme were pre-incubated in a 384 well white solid bottom plate (Greiner, Cat#784075) for 10 minutes. After incubation, the substrate and ATP were added and incubated for further 60 minutes. After 60 minutes, ADP-Glo™ was added and plate was incubated for another 40 minutes. After 40 minutes, Kinase Detection Reagent was added and the plate was incubated for 45 minutes. After 45 minutes, plate was read on Perkin Elmer EnVision using luminescence read (0.5 seconds/well).

pIC50: −log10 of the molar value. Bounds are passed on as bounds.

`O=C(NC1CC1)c1ccc2c(c1)CN(c1cccc(-c3nncn3C3CC3)n1)C2=O` had a pIC50 of more than 6.70.
